“And” between values parts separate entries of the source, which are not always exact repeats. Equal values may be shown once. Read-outs that look alike come from different tables or passages of the source.
Tests used:
Assay in all cases: greenhouse post-emergence herbicidal test
MATCH = type: in vivo, Matricaria recutita; parameters: key to herbicidal activity against MATCH found: rating on a scale from 0 to 100; details: post emergence
How it was run: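 Post-emergence greenhouse test: plants in loamy sand, sprayed at 1–15 cm height with aqueous spray liquor from 10% emulsion concentrates, kept at 10-25 °C or 20-35 °C by species. Damage scored 0–100 (100 = complete destruction), usually 20 days after treatment. Expected additive effect E from Colby: E=X+Y−(X·Y/100).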

PANMI = type: in vivo, Panicum miliaceum; details: application rate a.i.: I.1 125 g/ha, alone or as mixture (composition 1.113)
Procedure: (§1) The culture containers used were plastic pots containing medium loamy sand with approximately 4.6% of humus and 69.9% sand as substrate. The seeds of the test plants were sown separately for each species.
(§2) For the post-emergence treatment, the test plants were grown to a plant height of from 1 to 15 cm, depending on the plant habit, and only then treated with the active compounds which had been suspended or emulsified in water. To this end, the test plants were either sown directly, and grown in the same containers, or they were first grown separately as seedlings and transplanted into the test containers a few days prior to treatment.
(§3) Depending on the species, the plants were kept at 10-25° C. and 20-35° C., respectively.
(§4) The test period extended over 1 to 3 weeks. During this time, the plants were tended and their response to the individual treatments was evaluated 20 days after treatment except mentioned otherwise.
Evaluation was carried out using a scale from 0 to 100. 100 means no emergence of the plants, or complete destruction of at least the above-ground parts, and 0 means no damage or normal course of growth.
The respective stated components A and B, and, if appropriate, C, were formulated as a 10% by weight strength emulsion concentrate and, with addition of the amount of solvent system, introduced into the spray liquor used for applying the active compound. In the examples, the solvent used was water.
In the examples below, using the method of S. R. Colby (1967) “Calculating synergistic and antagonistic responses of herbicide combinations”, Weeds 15, p. 22 ff., the value E, which is expected if the activity of the individual active compounds is only additive, was calculated. E=X+Y−(X·Y/100)

POLAV = type: in vivo, Polygonum aviculare; parameters: key: rating on a scale from 0 to 100
How it was run: (§5)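 Herbicidal activity scored on a 0 (no damage) to 100 (plants destroyed) scale, usually 20 days after water-based spraying of 1–15 cm plants grown in loamy sand at 10-25 °C or 20-35 °C depending on species. Components were applied from 10% emulsion concentrates; Colby's E=X+Y−(X·Y/100) gives the additive expectation.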

SETVI = type: in vivo, Setaria viridis; details: a.i. g/ha: I.1 20.8, B.192 62.5, 20 days after treatment
Procedure: as §1, §2, §3, §4
Evaluation was carried out using a scale from 0 to 100. […]
In the examples below, using the method of S. R. Colby (1967) “Calculating synergistic and antagonistic responses of herbicide combinations”, Weeds 15, p. 22 ff., the value E, which is expected if the activity of the individual active compounds is only additive, was calculated. […]

VIOAR = type: in vivo, Viola arvensis; parameters: key to herbicidal activity against VIOAR found / herbicidal activity against VIOLA found: rating on a scale from 0 to 100; details: post emergence; for pest or weed control at 62.5 g/ha / pest or weed control at 125 g/ha: Viola arvensis, post-emergence, read-out: herbicidal activity against VIOAR found
How it was run: as §5

[1] = application rate a.i.: I.1 62.5 g/ha, B.84 (paraquat-dichloride) 17.5 g/ha, alone or as mixture (composition 1.84)
[2] = 6 days after treatment, g/ha a.i.: I.1 31.25, naptalam 200, mixture 31.25+200
[3] = 6 days after treatment, g/ha a.i.: I.1 62.5, B.96 70, mixture 62.5+70
[4] = 6 days after treatment, g/ha a.i.: I.1 62.5, B.96 140, mixture 62.5+140
[5] = 6 days after treatment, g/ha a.i.: I.1 62.5, naptalam 100, mixture 62.5+100
[6] = 6 days after treatment, g/ha a.i.: I.1 62.5, naptalam 200, mixture 62.5+200

O=C(O)c1cc(C2CC2)nc2onc(C3CC3)c12 [I.1]
herbicidal activity against MATCH found (MATCH; a.i. g/ha: I.1 62.5, B.191 225, 20 days after treatment): 30%
herbicidal activity against MATCH found (MATCH; a.i. g/ha: I.1 62.5, B.67 125, 20 days after treatment): 0%
herbicidal activity against MATCH found (MATCH; application rate a.i.: I.1 20.8 g/ha, B.107 (topramezone) 6 g/ha, alone or as mixture (composition 1.107)): 60
herbicidal activity against MATCH found (MATCH; application rate a.i.: I.1 31.25 g/ha, B.87 (carfentrazone-ethyl) 1.75 g/ha, alone or as mixture (composition 1.87)): 35
herbicidal activity against MATCH found (MATCH; [1]): 80
herbicidal activity against MATCH found (MATCH; application rate a.i.: I.1 62.5 g/ha, B.87 (carfentrazone-ethyl) 1.75 g/ha, alone or as mixture (composition 1.87)): 80
herbicidal activity against MATCH found (MATCH; applied alone at 31.25 g/ha a.i.): 25
herbicidal activity against MATCH found (MATCH; g/ha a.i.: I.1 31.25, B.24 2, mixture 31.25+2): 25
herbicidal activity against MATCH found (MATCH; g/ha a.i.: I.1 125, B.24 2, mixture 125+2): 75
herbicidal activity against MATCH found (MATCH; g/ha a.i.: I.1 125, B.63 0.5, mixture 125+0.5): 75
herbicidal activity against PANMI, found (PANMI; B.113 (glyphosate) 33.75 g/ha): 60
herbicidal activity against PANMI, found (PANMI; B.113 (glyphosate) 135 g/ha): 60
herbicidal activity against POLAV found (POLAV; 62.5 g/ha a.i.): 65
herbicidal activity against POLAV found (POLAV; 125 g/ha a.i.): 65
herbicidal activity against POLAV found (POLAV; 6 days after treatment, g/ha a.i.: I.1 31.25, naptalam 50, mixture 31.25+50): 70
herbicidal activity against POLAV found (POLAV; [2]): 70
herbicidal activity against POLAV found (POLAV; [3]): 70
herbicidal activity against POLAV found (POLAV; [4]): 70
herbicidal activity against POLAV found (POLAV; 6 days after treatment, g/ha a.i.: I.1 62.5, naptalam 50, mixture 62.5+50): 70
herbicidal activity against POLAV found (POLAV; [5]): 70
herbicidal activity against POLAV found (POLAV; [6]): 70
herbicidal activity against POLAV found (POLAV; a.i. g/ha: I.1 15.6, B.190 62.5, 20 days after treatment): 45%
herbicidal activity against POLAV found (POLAV; a.i. g/ha: I.1 31.25, bentazon Na 125, 20 days after treatment): 80%
herbicidal activity against SETVI found (SETVI): 25%
pest or weed control at 62.5 g/ha (VIOAR; I.1 alone 62.5 g/ha a.i.): 30%
pest or weed control at 62.5 g/ha (VIOAR; 62.5 g/ha a.i.): 0%
pest or weed control at 125 g/ha (VIOAR; 125 g/ha a.i.): 90%
pest or weed control at 62.5 g/ha (VIOAR; single active, 62.5 g/ha a.i.): 20%
pest or weed control at 125 g/ha (VIOAR; single active, 125 g/ha a.i.): 30%
herbicidal activity against VIOAR found (VIOAR; 6 days after treatment, g/ha a.i.: I.1 31.25, B.96 35, mixture 31.25+35): 0
herbicidal activity against VIOAR found (VIOAR; 6 days after treatment, g/ha a.i.: I.1 31.25, B.96 70, mixture 31.25+70): 0
herbicidal activity against VIOAR found (VIOAR; 6 days after treatment, g/ha a.i.: I.1 31.25, B.96 140, mixture 31.25+140): 0
herbicidal activity against VIOAR found (VIOAR; [2]): 0
herbicidal activity against VIOAR found (VIOAR; 6 days after treatment, g/ha a.i.: I.1 62.5, B.96 35, mixture 62.5+35): 0
herbicidal activity against VIOAR found (VIOAR; [3]): 0
herbicidal activity against VIOAR found (VIOAR; [4]): 0
herbicidal activity against VIOAR found (VIOAR; [5]): 0
herbicidal activity against VIOAR found (VIOAR; [6]): 0
herbicidal activity against VIOAR found (VIOAR; I.1 62.5 g/ha, B.89 12.5 g/ha a.i.): 25
herbicidal activity against VIOAR found (VIOAR; application rate a.i.: I.1 31.25 g/ha, B.84 (paraquat-dichloride) 17.5 g/ha, alone or as mixture (composition 1.84)): 40
herbicidal activity against VIOAR found (VIOAR; application rate a.i.: I.1 62.5 g/ha, B.100 (isoxaflutole) 12.5 g/ha, alone or as mixture (composition 1.100)): 30
herbicidal activity against VIOAR found (VIOAR; application rate a.i.: I.1 62.5 g/ha, B.30 (imazamox) 3.75 g/ha, alone or as mixture (composition 1.030)): 0
herbicidal activity against VIOAR found (VIOAR; [1]): 40
herbicidal activity against VIOAR found (VIOAR; applied alone at 125 g/ha a.i.): 60 and 80
herbicidal activity against VIOAR found (VIOAR; g/ha a.i.: I.1 62.5, B.52 2.5, mixture 62.5+2.5): 0
herbicidal activity against VIOAR found (VIOAR; g/ha a.i.: I.1 62.5, B.63 0.5, mixture 62.5+0.5): 0
herbicidal activity against VIOAR found (VIOAR; g/ha a.i.: I.1 125, B.52 2.5, mixture 125+2.5): 0
herbicidal activity against VIOAR found (VIOAR; g/ha a.i.: I.1 125, B.52 5, mixture 125+5): 0
herbicidal activity against VIOAR found (VIOAR; g/ha a.i.: I.1 125, B.63 1, mixture 125+1): 0
herbicidal activity against VIOLA found (VIOAR; single active, 15.625 g/ha a.i.): 0
herbicidal activity against VIOLA found (VIOAR; single active, 62.5 g/ha a.i.): 20
herbicidal activity against VIOLA found (VIOAR; single active, 125 g/ha a.i.): 30

— patent publication US10881110B2, “Herbicidal compositions comprising isoxazolo[5,4-b]pyridines” (BASF SE, priority 2014, dated 2021)
